Source: the supplement of paper PMC10307832

Assays:
Experiment in all cases: relative viability (nuclei count vs DMSO), 5 days (fraction); higher = more cells survive
NCI-H2126 = tested on: NCI-H2126
In short: (§1)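 Relative viability equals treated-well nuclei counts divided by vehicle-well nuclei counts. Counts came from 4× images of lung cancer cell lines grown in 1536-well plates for 5 days after pin-tool dosing on the day after seeding. Dosing used one drug alone or a fixed anchor-drug dose plus five library-drug doses (not always all listed) in √10 steps, and values are medians of duplicate plates.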

LCLC-103H = tested on: LCLC-103H
In short: as §1

SK-MES-1 = tested on: SK-MES-1
In short: as §1

NCI-H1944 = tested on: NCI-H1944
In short: as §1

NCI-H1993 = tested on: NCI-H1993
In short: as §1

PC-14 = tested on: PC-14
In short: as §1

LK-2 = tested on: LK-2
In short: as §1

HCC-827 = tested on: HCC-827
In short: as §1

NCI-H661 = tested on: NCI-H661
In short: as §1

NCI-H727 = tested on: NCI-H727
In short: as §1

NCI-H441 = tested on: NCI-H441
In short: as §1

HOP-62 = tested on: HOP-62
In short: as §1

EKVX = tested on: EKVX
In short: as §1

LXF-289 = tested on: LXF-289
In short: as §1

NCI-H647 = tested on: NCI-H647
In short: as §1

ChaGo-K-1 = tested on: ChaGo-K-1
In short: as §1

NCI-H2170 = tested on: NCI-H2170
In short: as §1

BEN = tested on: BEN
In short: as §1

LOU-NH91 = tested on: LOU-NH91
In short: as §1

NCI-H1666 = tested on: NCI-H1666
In short: as §1

NCI-H1355 = tested on: NCI-H1355
In short: as §1

RERF-LC-KJ = tested on: RERF-LC-KJ
In short: as §1

NCI-H1437 = tested on: NCI-H1437
In short: as §1

For `Cc1cn(-c2cc(NC(=O)c3ccc(C)c(Nc4nccc(-c5cccnc5)n4)c3)cc(C(F)(F)F)c2)cn1` [Nilotinib] + COc1cccc2cc(-c3nc([C@H]4CC[C@H](C(=O)O)CC4)n4ncnc(N)c34)[nH]c12 [OSI-027] (partner 0.5 µM), the relative viability (NCI-H2126; first compound 0.001 µM) was 0.673, the relative viability (NCI-H2126; first compound 0.003162 µM) was 0.706 and the relative viability (NCI-H2126; first compound 0.01 µM) was 0.572. It also gave a relative viability (NCI-H2126; first compound 0.03162 µM) of 0.582, a relative viability (NCI-H2126; first compound 0.1 µM) of 0.544 and a relative viability (LCLC-103H; first compound 0.001 µM) of 0.406. The relative viability (LCLC-103H; first compound 0.003162 µM) was 0.58, the relative viability (LCLC-103H; first compound 0.01 µM) was 0.508 and the relative viability (LCLC-103H; first compound 0.03162 µM) was 0.432. It also gave a relative viability (LCLC-103H; first compound 0.1 µM) of 0.407, a relative viability (SK-MES-1; first compound 0.001 µM) of 0.474 and a relative viability (SK-MES-1; first compound 0.003162 µM) of 0.544. The relative viability (SK-MES-1; first compound 0.01 µM) was 0.662, the relative viability (SK-MES-1; first compound 0.03162 µM) was 0.342 and the relative viability (SK-MES-1; first compound 0.1 µM) was 0.327. It also gave a relative viability (NCI-H1944; first compound 0.001 µM) of 0.418, a relative viability (NCI-H1944; first compound 0.003162 µM) of 0.407 and a relative viability (NCI-H1944; first compound 0.01 µM) of 0.367. It also gave a relative viability (NCI-H1944; first compound 0.03162 µM) of 0.324, a relative viability (NCI-H1993; first compound 0.001 µM) of 0.547 and a relative viability (NCI-H1993; first compound 0.003162 µM) of 0.551. For the same compound, the relative viability (NCI-H1993; first compound 0.01 µM) was 0.536, the relative viability (NCI-H1993; first compound 0.03162 µM) was 0.487 and the relative viability (NCI-H1993; first compound 0.1 µM) was 0.562. It also gave a relative viability (PC-14; first compound 0.001 µM) of 0.611, a relative viability (PC-14; first compound 0.003162 µM) of 1.03 and a relative viability (PC-14; first compound 0.01 µM) of 0.846. The relative viability (PC-14; first compound 0.03162 µM) was 0.312, the relative viability (PC-14; first compound 0.1 µM) was 0.254 and the relative viability (LK-2; first compound 0.001 µM) was 0.209. It also gave a relative viability (LK-2; first compound 0.003162 µM) of 0.174, a relative viability (LK-2; first compound 0.01 µM) of 0.184 and a relative viability (LK-2; first compound 0.03162 µM) of 0.178. For the same compound, the relative viability (LK-2; first compound 0.1 µM) was 0.187, the relative viability (HCC-827; first compound 0.003162 µM) was 0.822 and the relative viability (HCC-827; first compound 0.01 µM) was 0.85. It also gave a relative viability (HCC-827; first compound 0.03162 µM) of 0.603, a relative viability (NCI-H661; first compound 0.001 µM) of 0.672 and a relative viability (NCI-H661; first compound 0.003162 µM) of 0.69. It also gave a relative viability (NCI-H661; first compound 0.03162 µM) of 0.538, a relative viability (NCI-H661; first compound 0.1 µM) of 0.634 and a relative viability (NCI-H727; first compound 0.001 µM) of 0.57. The relative viability (NCI-H727; first compound 0.003162 µM) was 0.477, the relative viability (NCI-H727; first compound 0.01 µM) was 0.697 and the relative viability (NCI-H727; first compound 0.03162 µM) was 0.44. The relative viability (NCI-H727; first compound 0.1 µM) was 0.344, the relative viability (NCI-H441; first compound 0.001 µM) was 0.524 and the relative viability (NCI-H441; first compound 0.003162 µM) was 0.743. The relative viability (NCI-H441; first compound 0.01 µM) was 0.52, the relative viability (NCI-H441; first compound 0.03162 µM) was 0.499 and the relative viability (NCI-H441; first compound 0.1 µM) was 0.483. For the same compound, the relative viability (HOP-62; first compound 0.001 µM) was 0.699, the relative viability (HOP-62; first compound 0.003162 µM) was 0.831 and the relative viability (HOP-62; first compound 0.01 µM) was 0.909. For the same compound, the relative viability (HOP-62; first compound 0.03162 µM) was 0.581, the relative viability (HOP-62; first compound 0.1 µM) was 0.559 and the relative viability (EKVX; first compound 0.001 µM) was 0.541. For the same compound, the relative viability (EKVX; first compound 0.003162 µM) was 0.719, the relative viability (EKVX; first compound 0.01 µM) was 0.904 and the relative viability (EKVX; first compound 0.03162 µM) was 0.665. The relative viability (EKVX; first compound 0.1 µM) was 0.671, the relative viability (LXF-289; first compound 0.001 µM) was 0.807 and the relative viability (LXF-289; first compound 0.003162 µM) was 0.965. The relative viability (LXF-289; first compound 0.01 µM) was 0.94, the relative viability (LXF-289; first compound 0.03162 µM) was 0.826 and the relative viability (LXF-289; first compound 0.1 µM) was 0.532. For the same compound, the relative viability (NCI-H647; first compound 0.001 µM) was 0.638, the relative viability (NCI-H647; first compound 0.003162 µM) was 0.749 and the relative viability (NCI-H647; first compound 0.01 µM) was 0.762. For the same compound, the relative viability (NCI-H647; first compound 0.03162 µM) was 0.355, the relative viability (NCI-H647; first compound 0.1 µM) was 0.644 and the relative viability (ChaGo-K-1; first compound 0.001 µM) was 0.49. It also gave a relative viability (ChaGo-K-1; first compound 0.003162 µM) of 0.643, a relative viability (ChaGo-K-1; first compound 0.01 µM) of 0.485 and a relative viability (ChaGo-K-1; first compound 0.03162 µM) of 0.471. For the same compound, the relative viability (ChaGo-K-1; first compound 0.1 µM) was 0.274, the relative viability (NCI-H2170; first compound 0.001 µM) was 0.662 and the relative viability (NCI-H2170; first compound 0.003162 µM) was 0.589. The relative viability (NCI-H2170; first compound 0.01 µM) was 0.832, the relative viability (NCI-H2170; first compound 0.03162 µM) was 0.828 and the relative viability (NCI-H2170; first compound 0.1 µM) was 0.563. For the same compound, the relative viability (BEN; first compound 0.001 µM) was 0.295, the relative viability (BEN; first compound 0.003162 µM) was 0.285 and the relative viability (BEN; first compound 0.01 µM) was 0.348. For the same compound, the relative viability (BEN; first compound 0.03162 µM) was 0.283, the relative viability (BEN; first compound 0.1 µM) was 0.277 and the relative viability (LOU-NH91; first compound 0.001 µM) was 0.687. It also gave a relative viability (LOU-NH91; first compound 0.003162 µM) of 0.728, a relative viability (LOU-NH91; first compound 0.01 µM) of 0.736 and a relative viability (LOU-NH91; first compound 0.03162 µM) of 0.67. The relative viability (LOU-NH91; first compound 0.1 µM) was 0.727, the relative viability (NCI-H1666; first compound 0.001 µM) was 0.823 and the relative viability (NCI-H1666; first compound 0.003162 µM) was 0.846. It also gave a relative viability (NCI-H1666; first compound 0.01 µM) of 0.879, a relative viability (NCI-H1666; first compound 0.03162 µM) of 0.753 and a relative viability (NCI-H1666; first compound 0.1 µM) of 0.899. The relative viability (NCI-H1355; first compound 0.001 µM) was 0.384, the relative viability (NCI-H1355; first compound 0.003162 µM) was 0.388 and the relative viability (NCI-H1355; first compound 0.01 µM) was 0.324. It also gave a relative viability (NCI-H1355; first compound 0.03162 µM) of 0.314, a relative viability (NCI-H1355; first compound 0.1 µM) of 0.329 and a relative viability (RERF-LC-KJ; first compound 0.001 µM) of 0.501. It also gave a relative viability (RERF-LC-KJ; first compound 0.003162 µM) of 0.586, a relative viability (RERF-LC-KJ; first compound 0.01 µM) of 0.53 and a relative viability (RERF-LC-KJ; first compound 0.03162 µM) of 0.438. It also gave a relative viability (RERF-LC-KJ; first compound 0.1 µM) of 0.374, a relative viability (NCI-H1437; first compound 0.001 µM) of 0.826 and a relative viability (NCI-H1437; first compound 0.003162 µM) of 0.815. The relative viability (NCI-H1437; first compound 0.01 µM) was 0.876, the relative viability (NCI-H1437; first compound 0.03162 µM) was 0.619 and the relative viability (NCI-H1437; first compound 0.1 µM) was 0.902.
